Results: patent US11254663B2 (BRISTOL-MYERS SQUIBB COMPANY, priority 2019, dated 2022)
pEC50: −log10 of the molar value.

The compounds below were run against FXR (Homo sapiens (Human), UniProt Q96RI1) (assay: transient human FXR/Gal4-luciferase reporter assay). Settings: not given.
Format: cell-based
Summary of the method: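 HEK293 cells stably carrying a 5×Gal4 response element–firefly luciferase reporter were transiently transfected overnight with a Gal4 DBD–human FXR LBD fusion plasmid. Compound was added in DMSO and cells were incubated overnight at 37 °C, 5% CO2. Activity was read as Steady-Glo luminescence.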

Chain of FXR (Q96RI1 262-486): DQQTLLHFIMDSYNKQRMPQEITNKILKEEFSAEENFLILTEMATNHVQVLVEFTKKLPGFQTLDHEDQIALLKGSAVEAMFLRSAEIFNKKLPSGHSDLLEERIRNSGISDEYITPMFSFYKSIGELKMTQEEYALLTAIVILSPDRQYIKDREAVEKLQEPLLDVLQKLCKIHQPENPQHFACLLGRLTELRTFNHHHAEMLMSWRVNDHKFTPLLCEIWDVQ

Structure (SMILES) | pEC50
Cc1nc2ccc(-c3ccnc(N(CC45CCC(c6noc(C(C)(C)C)n6)(CC4)CC5)C(=O)C45CC(F)(C4)C5)c3)cc2s1 [Example 537, N-((4-(5-(tert-butyl)-1,2,4-oxadiazol-3-yl)bicyclo[2.2.2]octan-1-yl)methyl)-3-fluoro-N-(4-(2-methylbenzo[d]thiazol-6-yl)pyridin-2-yl)bicyclo[1.1.1]pentane-1-carboxamide] | 7.17
Cc1nc2ccc(-c3ccnc(N(CC45CCC(c6cc(C7CC7)nn6C)(CC4)CC5)C(=O)C45CC(F)(C4)C5)c3)cc2s1 [Example 546, N-((4-(3-cyclopropyl-1-methyl-1H-pyrazol-5-yl)bicyclo[2.2.2]octan-1-yl)methyl)-3-fluoro-N-(4-(2-methylbenzo[d]thiazol-6-yl)pyridin-2-yl)bicyclo[1.1.1]pentane-1-carboxamide] | 7.32
CC(C)(C)c1nc(C23CCC(CN(C(=O)C45CC(F)(C4)C5)c4cc(-c5cnc(C6CC6)nc5)ccn4)(CC2)CC3)no1 [Example 539, N-((4-(5-(tert-butyl)-1,2,4-oxadiazol-3-yl)bicyclo[2.2.2]octan-1-yl)methyl)-N-(4-(2-cyclopropylpyrimidin-5-yl)pyridin-2-yl)-3-fluorobicyclo[1.1.1]pentane-1-carboxamide] | 6.92
CC(C)(O)c1ccc(-c2cccc(N(CC34CCC(c5noc(C(C)(C)F)n5)(CC3)CC4)C(=O)NCC3(CO)CCOCC3)c2)cc1 [Example 647, 1-((4-(5-(2-fluoropropan-2-yl)-1,2,4-oxadiazol-3-yl)bicyclo[2.2.2]octan-1-yl)methyl)-3-((4-(hydroxymethyl)tetrahydro-2H-pyran-4-yl)methyl)-1-(4′-(2-hydroxypropan-2-yl)-[1,1′-biphenyl]-3-yl)urea] | 6.24
CC(C)(C)c1nc(C23CCC(CN(C(=O)C45CC(F)(C4)C5)c4cc(-c5ccc(OC(F)F)cc5)ccn4)(CC2)CC3)no1 [Example 533, N-((4-(5-(tert-butyl)-1,2,4-oxadiazol-3-yl)bicyclo[2.2.2]octan-1-yl)methyl)-N-(4-(4-(difluoromethoxy)phenyl)pyridin-2-yl)-3-fluorobicyclo[1.1.1]pentane-1-carboxamide] | 7.59
CC(C)(O)c1ccc(-c2cccc(N(CC34CCC(c5noc(C(C)(C)F)n5)(CC3)CC4)C(=O)N3CCN(CC(F)(F)F)CC3)c2)cc1 [Example 645] | 6.64

Same assay, conditions: Gal4-hFXR fusion construct, HEK293 reporter cells; response relative to 8 μM GW-4064

Structure (SMILES) | pEC50
Cc1nc2cc(-c3cccc(N(CC45CCC(c6nc(C7CC7)no6)(CC4)CC5)C(=O)C45CC(F)(C4)C5)c3)ccc2o1 [Example 305, N-((4-(3-cyclopropyl-1,2,4-oxadiazol-5-yl)bicyclo[2.2.2]octan-1-yl)methyl)-3-fluoro-N-(3-(2-methylbenzo[d]oxazol-5-yl)phenyl)bicyclo[1.1.1]pentane-1-carboxamide] | 6.52
Cc1cn2cc(-c3cccc(N(CC45CCC(c6nc(C7CC7)no6)(CC4)CC5)C(=O)C45CC(F)(C4)C5)c3)cc(C)c2n1 [Example 322, N-((4-(3-cyclopropyl-1,2,4-oxadiazol-5-yl)bicyclo[2.2.2]octan-1-yl)methyl)-N-(3-(2,8-dimethylimidazo[1,2-a]pyridin-6-yl)phenyl)-3-fluorobicyclo[1.1.1]pentane-1-carboxamide] | 6.57
COc1cc(-c2cccc(N(CC34CCC(c5nnc(C)o5)(CC3)CC4)C(=O)C3CCC3)c2)ccn1 [Example 231, N-(3-(2-methoxypyridin-4-yl)phenyl)-N-((4-(5-methyl-1,3,4-oxadiazol-2-yl)bicyclo[2.2.2]octan-1-yl)methyl)cyclobutanecarboxamide] | 6.23
CC(F)(F)c1nc(C23CCC(CN(C(=O)C45CC(F)(C4)C5)c4cccc(C5CC5)c4)(CC2)CC3)no1 [Example 571, N-(3-cyclopropylphenyl)-N-((4-(5-(1,1-difluoroethyl)-1,2,4-oxadiazol-3-yl)bicyclo[2.2.2]octan-1-yl)methyl)-3-fluorobicyclo[1.1.1]pentane-1-carboxamide] | 7.33
Cc1nc2ccc(-c3cccc(N(CC45CCC(c6nc(C7CC7)no6)(CC4)CC5)C(=O)C45CC(F)(C4)C5)c3)cc2o1 [Example 275, N-((4-(3-cyclopropyl-1,2,4-oxadiazol-5-yl)bicyclo[2.2.2]octan-1-yl)methyl)-3-fluoro-N-(3-(2-methylbenzo[d]oxazol-6-yl)phenyl)bicyclo[1.1.1]pentane-1-carboxamide] | 7.23
CC(C)(C)NC(=O)N(CC12CCC(c3noc(C(C)(C)F)n3)(CC1)CC2)c1cc(-c2ccc(OC(F)F)cc2)cnn1 [Example 660] | 5.66
CC(C)(O)c1ccc(-c2cccc(N(CC34CCC(c5noc(C(C)(C)F)n5)(CC3)CC4)C(=O)N[C@H]3CC[C@](C)(O)CC3)c2)cc1 [Example 599, 1-((4-(5-(2-fluoropropan-2-yl)-1,2,4-oxadiazol-3-yl)bicyclo[2.2.2]octan-1-yl)methyl)-3-((trans)-4-hydroxy-4-methylcyclohexyl)-1-(4′-(2-hydroxypropan-2-yl)-[1,1′-biphenyl]-3-yl)urea] | 7.52
O=C(N(CC12CCC(c3nc(C4CC4)no3)(CC1)CC2)c1cccc(-c2nccc(C(F)(F)F)n2)c1)C12CC(F)(C1)C2 [Example 291, N-((4-(3-cyclopropyl-1,2,4-oxadiazol-5-yl)bicyclo[2.2.2]octan-1-yl)methyl)-3-fluoro-N-(3-(4-(trifluoromethyl)pyrimidin-2-yl)phenyl)bicyclo[1.1.1]pentane-1-carboxamide] | 6.36
O=C(N(CC12CCC(c3nc(C4CC4)no3)(CC1)CC2)c1cccc(-c2ccc(C(F)(F)F)nc2)c1)C12CC(F)(C1)C2 [Example 280, N-((4-(3-cyclopropyl-1,2,4-oxadiazol-5-yl)bicyclo[2.2.2]octan-1-yl)methyl)-3-fluoro-N-(3-(6-(trifluoromethyl)pyridin-3-yl)phenyl)bicyclo[1.1.1]pentane-1-carboxamide] | 6.51
Cc1nc2ncc(-c3cccc(N(CC45CCC(c6nc(C(C)(C)C)no6)(CC4)CC5)C(=O)C45CC(F)(C4)C5)c3)cc2s1 [Example 365, N-((4-(3-(tert-butyl)-1,2,4-oxadiazol-5-yl)bicyclo[2.2.2]octan-1-yl)methyl)-3-fluoro-N-(3-(2-methylthiazolo[4,5-b]pyridin-6-yl)phenyl)bicyclo[1.1.1]pentane-1-carboxamide] | 7.08
COc1ncc(-c2cccc(N(CC34CCC(c5nc(C(C)(C)C)no5)(CC3)CC4)C(=O)C34CC(F)(C3)C4)c2)cn1 [Example 363, N-((4-(3-(tert-butyl)-1,2,4-oxadiazol-5-yl)bicyclo[2.2.2]octan-1-yl)methyl)-3-fluoro-N-(3-(2-methoxypyrimidin-5-yl)phenyl)bicyclo[1.1.1]pentane-1-carboxamide] | 7.15
CC(C)(F)c1nc(C23CCC(CN(c4cccc(C5=CCC(C(C)(C)O)CC5)c4)C(=O)[C@H]4C[C@](O)(C(F)(F)F)C4)(CC2)CC3)no1 (stereo partly drawn) [Example 587, (cis)-N-((4-(5-(2-fluoropropan-2-yl)-1,2,4-oxadiazol-3-yl)bicyclo[2.2.2]octan-1-yl)methyl)-3-hydroxy-N-(4′-(2-hydroxypropan-2-yl)-2′,3′,4′,5′-tetrahydro-[1,1′-biphenyl]-3-yl)-3-(trifluoromethyl)cyclobutane-1-carboxamide] | 7.38
O=C(N(CC12CCC(c3nc(C4CC4)no3)(CC1)CC2)c1cccc(-c2nc(C(F)(F)F)ccc2F)c1)C12CC(F)(C1)C2 [Example 293, N-((4-(3-cyclopropyl-1,2,4-oxadiazol-5-yl)bicyclo[2.2.2]octan-1-yl)methyl)-3-fluoro-N-(3-(3-fluoro-6-(trifluoromethyl)pyridin-2-yl)phenyl)bicyclo[1.1.1]pentane-1-carboxamide] | 6.17
CN1CCN(c2cccc(N(CC34CCC(c5nc(C6CC6)no5)(CC3)CC4)C(=O)C34CC(F)(C3)C4)c2)CC1 [Example 416, N-((4-(3-cyclopropyl-1,2,4-oxadiazol-5-yl)bicyclo[2.2.2]octan-1-yl)methyl)-3-fluoro-N-(3-(4-methylpiperazin-1-yl)phenyl)bicyclo[1.1.1]pentane-1-carboxamide] | 5.98
CC(C)c1noc(C23CCC(CN(C(=O)C45CC(F)(C4)C5)c4cccc(-c5ccc(C(F)(F)F)cc5)c4)(CC2)CC3)n1 [Example 380, 3-fluoro-N-((4-(3-isopropyl-1,2,4-oxadiazol-5-yl)bicyclo[2.2.2]octan-1-yl)methyl)-N-(4′-(trifluoromethyl)-[1,1′-biphenyl]-3-yl)bicyclo[1.1.1]pentane-1-carboxamide] | 6.55
Cc1nc2ccc(-c3cncc(N(CC45CCC(c6nc(C7CC7)no6)(CC4)CC5)C(=O)C45CC(F)(C4)C5)c3)cc2s1 [Example 425, N-((4-(3-cyclopropyl-1,2,4-oxadiazol-5-yl)bicyclo[2.2.2]octan-1-yl)methyl)-3-fluoro-N-(5-(2-methylbenzo[d]thiazol-6-yl)pyridin-3-yl)bicyclo[1.1.1]pentane-1-carboxamide] | 6.70
N#CC1(c2ccc(-c3cccc(N(CC45CCC(c6nc(C7CC7)no6)(CC4)CC5)C(=O)C45CC(F)(C4)C5)c3)cc2)CC1 [Example 279, N-(4′-(1-cyanocyclopropyl)-[1,1′-biphenyl]-3-yl)-N-((4-(3-cyclopropyl-1,2,4-oxadiazol-5-yl)bicyclo[2.2.2]octan-1-yl)methyl)-3-fluorobicyclo[1.1.1]pentane-1-carboxamide] | 6.90
CS(=O)(=O)Nc1ccc(-c2cccc(N(CC34CCC(c5ccc(C6(C#N)CC6)cc5)(CC3)OC4)C(=O)C34CC(F)(C3)C4)c2)cc1 [Example 345, N-((1-(4-(1-Cyanocyclopropyl)phenyl)-2-oxabicyclo[2.2.2]octan-4-yl)methyl)-3-fluoro-N-(4′-(methylsulfonamido)-[1,1′-biphenyl]-3-yl)bicyclo[1.1.1]pentane-1-carboxamide] | 6.58
